The text below walks through data of US20240116910A1, “Heterocycles as WIP1 Inhibitors” (PMV Pharmaceuticals, Inc., priority 2022, published 2024).

Structures are written as SMILES. pIC50: −log10 of the molar value.

Sequence of recombinant His-tag Wip1(2-420) protein (amino acids #2-420) (O15297 2-420): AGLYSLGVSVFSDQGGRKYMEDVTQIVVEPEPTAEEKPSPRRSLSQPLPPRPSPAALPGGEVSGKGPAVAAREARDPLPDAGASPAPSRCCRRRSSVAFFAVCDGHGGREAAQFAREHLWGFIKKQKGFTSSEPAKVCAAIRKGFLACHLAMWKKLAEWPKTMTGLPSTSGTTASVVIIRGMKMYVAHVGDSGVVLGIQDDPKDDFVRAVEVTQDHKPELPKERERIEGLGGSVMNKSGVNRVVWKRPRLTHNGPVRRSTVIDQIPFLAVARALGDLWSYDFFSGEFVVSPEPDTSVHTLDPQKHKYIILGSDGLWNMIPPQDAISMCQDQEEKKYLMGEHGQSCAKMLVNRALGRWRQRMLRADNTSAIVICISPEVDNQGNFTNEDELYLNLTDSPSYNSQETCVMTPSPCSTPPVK

The test addresses recombinant His-tag Wip1(2-420) protein (amino acids #2-420) (Homo sapiens (Human), UniProt O15297). Nature of the test: Wip1(2-420) phosphatase enzyme FDP assay. It is filed as biochemical. As to conditions: fluorescein diphosphate (FDP) substrate, RT 2 hours, fluorescence Ex485/Em535; read-out: WIP1 (Truncated 2-420) FDP Assay: IC50.
By pIC50 is commonly meant the negative decadic logarithm of the IC50, by convention in mol/L. Turning to `Cc1ncc(Cl)cc1N[C@@H](c1ccc(C(=O)N[C@@H](CC2CCCC2)C(=O)NC2CC2)s1)C(F)(F)F` [Compound 184, (2S)-2-({5-[(1R)-1-[(5-chloro-2-methylpyridin-3-yl)amino]-2,2,2-trifluoroethyl]thiophen-2-yl}formamido)-3-cyclopentyl-N-cyclopropylpropanamide], the negative logarithm of the IC50 (pIC50) is 6.88.

Consider `C[C@H](c1ccc(C(=O)N[C@@H](CC2CCCC2)C(=O)NC2CC2)s1)N1CCN(C)c2ccc(Cl)cc21` [Compound 240, (2S)-2-({5-[(1R)-1-(7-chloro-4-methyl-1,2,3,4-tetrahydroquinoxalin-1-yl)ethyl]thiophen-2-yl}formamido)-3-cyclopentyl-N-cyclopropylpropanamide], for which the pIC50 was 6.81.

Consider `Cc1ncc(Cl)cc1N[C@@H](C)c1ccc(C(=O)NC2Cc3ccccc3NC2=O)s1` (stereo partly drawn) [Compound 253, 5-[(1S)-1-[(5-chloro-2-methylpyridin-3-yl)amino]ethyl]-N-(2-oxo-1,2,3,4-tetrahydroquinolin-3-yl)thiophene-2-carboxamide], for which the negative-log IC50 (pIC50) was under 5.00.

As for `COCCN1CCCc2cc(NC(=O)[C@H](CC3CCCC3)NC(=O)c3ccc([C@H](C)Nc4cc(Cl)cnc4C)s3)ccc21` [Compound 129, (2S)-2-({5-[(1S)-1-[(5-chloro-2-methylpyridin-3-yl)amino]ethyl]thiophen-2-yl}formamido)-3-cyclopentyl-N-[1-(2-methoxyethyl)-1,2,3,4-tetrahydroquinolin-6-yl]propanamide], the pIC50 was 8.15.

In the case of `Cc1ncc(Cl)cc1N[C@@H](C)c1ccc(C(=O)NC(CC2CCCC2)C(=O)Nc2c[nH]nn2)s1` (stereo partly drawn) [Compound 134, 2-({5-[(1S)-1-[(5-chloro-2-methylpyridin-3-yl)amino]ethyl]thiophen-2-yl}formamido)-3-cyclopentyl-N-(1H-1,2,3-triazol-4-yl)propanamide], the pIC50 was 8.40.

Turning to `Cc1ncc(Cl)cc1NC(c1ccc(C(=O)N[C@@H](CC2CCCC2)C(=O)NC23CC(C2)C3)s1)C(F)(F)F` (stereo partly drawn) [Compound 225, (2S)-N-{bicyclo[1.1.1]pentan-1-yl}-2-[(5-{1-[(5-chloro-2-methylpyridin-3-yl)amino]-2,2,2-trifluoroethyl}thiophen-2-yl)formamido]-3-cyclopentylpropanamide], the pIC50 was 7.05.

For `Cc1ncc(Cl)cc1N[C@@H](C)c1ccc(C(=O)N[C@@H](CC2CC3CC3C2)C(=O)Nc2cnn(C)c2)s1` (stereo partly drawn) [Compound 179, (2S)-3-{bicyclo[3.1.0]hexan-3-yl}-2-({5-[(1S)-1-[(5-chloro-2-methylpyridin-3-yl)amino]ethyl]thiophen-2-yl}formamido)-N-(1-methyl-1H-pyrazol-4-yl)propanamide], the pIC50 is 8.40.

Regarding `Cc1ncc(Cl)cc1N[C@@H](C)c1ccc(C(=O)N[C@@H](CC2CCCC2)C(=O)Nc2cnn(C(C)(C)C)c2)s1` [Compound 149, (2S)-N-(1-tert-butyl-1H-pyrazol-4-yl)-2-({5-[(1S)-1-[(5-chloro-2-methylpyridin-3-yl)amino]ethyl]thiophen-2-yl}formamido)-3-cyclopentylpropanamide], the negative logarithm of the IC50 (pIC50) was 8.22.

Turning to `Cc1ncc(Cl)cc1N[C@@H](C)c1ccc(C(=O)N[C@@H](CCC(C)C)C(=O)NC2CC2)s1` [Compound 217, (2S)-2-({5-[(1S)-1-[(5-chloro-2-methylpyridin-3-yl)amino]ethyl]thiophen-2-yl}formamido)-N-cyclopropyl-5-methylhexanamide], the pIC50 was 7.57.

In the case of `Cc1ncc(Cl)cc1N[C@@H](C)c1ccc(C(=O)N[C@@H](CCC(C)(C)C)C(=O)NC2CC2)s1` [Compound 161, (2S)-2-({5-[(1S)-1-[(5-chloro-2-methylpyridin-3-yl)amino]ethyl]thiophen-2-yl}formamido)-N-cyclopropyl-5,5-dimethylhexanamide], the pIC50 is 7.96.
